Where two headings read alike, the source gives them in different places. Values belong to the molecule of their own block, whether it stands above or below them. Non-standard residues stand in square brackets, D forms with d. Residues, ends and D or L forms follow the SMILES beside them.
How the values were obtained:
[1] = blood plasma, cited from earlier work
Source text: Next, we sought to assess the in vivo efficacy of the thioamidated somatostatin analogs post s.c. administration. Somatostatin, first known to inhibit the release of growth hormone, induces its biological effects by interacting with five of its G-protein-coupled receptor subtypes SSTR1-SSTR5[50]. Out of which, the SSTR2 and SSTR5 have gained significant attention due to their role in mediating the inhibition of growth hormone and antiproliferative effects of somatostatin on tumor growth. […]

[2] = HDX of amide protons by NMR in DMSO-d6:D2O (8:2); details: HDX by NMR, 20% D2O in DMSO-d6
Procedure: (§1) As hydrogen bonding and solvation of NH groups play an important role in the permeability of macrocycles, we determined the solvent accessibility of individual amide protons in 10 and 10a–10f by hydrogen-deuterium exchange (HDX) through NMR spectroscopy (Figs. 2a–c).
(§2) Spectra were recorded on a Bruker AV 500 MHz spectrometer at 25 °C.

in vitro [3] = details: pig, simulated intestinal fluid
in vitro [4] = details: human, microsomes
Procedure: (§3) A stability assessment of the peptides was done in simulated gastric (SGF) and intestinal (SIF) fluids and human liver microsomes. The degradation kinetics of the aliquoted samples at desired time points were analyzed through RP-HPLC.

[5] = HDX of amide protons by NMR in CDCl3:CD3OD (8:2)
Procedure: as §1, §2

[6] = Retention in hydrophobic C18 column by HPLC; details: Supplementary Fig 3d, logD7.4 vs tR
pepsin [7] = molecular target: T1, pepsin (Sus scrofa, UniProt P00791); details: pH 1.2
T1 sequence (P00791 60-385): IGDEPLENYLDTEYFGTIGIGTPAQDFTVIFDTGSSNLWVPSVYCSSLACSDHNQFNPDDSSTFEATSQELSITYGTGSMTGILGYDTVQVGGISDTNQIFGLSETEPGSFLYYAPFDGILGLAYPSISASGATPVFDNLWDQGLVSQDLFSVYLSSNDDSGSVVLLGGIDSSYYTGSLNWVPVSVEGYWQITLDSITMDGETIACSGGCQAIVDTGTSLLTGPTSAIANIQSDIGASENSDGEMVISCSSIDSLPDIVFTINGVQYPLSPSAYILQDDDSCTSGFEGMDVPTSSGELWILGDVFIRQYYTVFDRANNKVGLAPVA
Procedure: as §3

[8] = rat, in vivo
Procedure: (§4) All animals were housed individually in the animal facility at Anthem Biosciences Pvt. Ltd and were acclimatized for 3 days. All animals were fasted overnight before dosing, whereas access to water was provided ad libitum. Peptides were administered orally and via s.c. route and blood samples were collected at different time points through a jugular vein catheter.

in vitro [9] = details: both, human, plasma
in vitro [10] = details: both, human, plasma; remark: listed apart in the source
Procedure: Blood was freshly drawn from three healthy adults, two male and one person of 26–28 year old. […] The plasma was separated by centrifugation. […] For checking metabolic stability, the required volume of plasma was pre-incubated at 37 °C prior to the experiment for 2 min, followed by spiking with the peptides. At different time points, plasma was aliquoted. The supernatant was separated and used for RP-HPLC quantification. Rapid Equilibrium Dialysis (RED) assay was performed to assess the plasma protein binding of the peptides following the supplier’s protocol.

in vivo = details: male, Wistar, rat
Procedure: as §4

pepsin [11] = molecular target: T1, pepsin; experiment: in vitro; details: simulated gastric fluid, pH 1.2
Procedure: as §3

[12] = type: physicochemical
[13] = type: physicochemical; remark: listed apart in the source
Source text: Since reduced solvation of S also contributes to the lipophilicity of the thioamidated peptides, we sought to estimate the global desolvation of the macrocyclic peptides, which is affected by solvation of both N(H) and C(S). […] Thus, we evaluated the desolvation potential of the cyclic peptides by determining the distribution coefficients in heptane-ethylene glycol (logDh/e), a solvent system that provides an experimental estimate of desolvation or hydrogen bond potential[38].

[14] = 20% CD3OD in CDCl3, % remaining after 24 hours

Procedure for human liver microsomes: as §3

Compound: C[C@H](N)C(=O)NCC(=O)N[C@H]1CSSC[C@@H](C(=O)O)NC(=O)[C@H](CO)NC(=O)[C@H]([C@@H](C)O)NC(=O)[C@H](Cc2ccccc2)NC(=O)[C@H]([C@@H](C)O)NC(=O)[C@H](CCCCN)NC(=O)[C@H](Cc2c[nH]c3ccccc23)NC(=O)[C@H](Cc2ccccc2)NC(=O)[C@H](Cc2ccccc2)NC(=O)[C@H](CC(N)=O)NC(=O)[C@H](CCCCN)NC1=O [SRIF-14]
plasma half-life [1]: 3 min
plasma half-life ([1]; listed as native somatostatin): ~ 3 min

Half-life of D-Leu1 amide proton (HDX) [2]: 0.25 h
Half-life of Leu2 amide proton (HDX) [2]: 1.52 h
Half-life of Leu3 amide proton (HDX) [2]: 3.28 h
Half-life of Leu6 amide proton (HDX) [2]: 7.83 h
Half-life of Tyr5 amide proton (HDX) [2]: 0.817 h
half-life (in vitro [3]): 0.267 h
remaining at 10 min (in vitro [3]): 57.1%
remaining at 0.5 h (in vitro [3]): 39%
remaining at 1 h (in vitro [3]): 30.7%
remaining at 2 h (in vitro [3]): 13.4%
remaining at 4 h (in vitro [3]): 12%
remaining at 8 h (in vitro [3]): 7.3%
remaining at 12 h (in vitro [3]): 5.5%
remaining at 24 h (in vitro [3]): 3%
remaining at 5 min (in vitro [4]): 55%
remaining at 10 min (in vitro [4]): 40%
remaining at 20 min (in vitro [4]): 33%
remaining at 0.5 h (in vitro [4]): 29%
remaining at 0.75 h (in vitro [4]): 22%
remaining at 1 h (in vitro [4]): 14%
Half-life of D-Leu1 amide proton (HDX) ([5]; 20% CD3OD in CDCl3): 7.25 h
Half-life of Leu2 amide proton (HDX) ([5]; 20% CD3OD in CDCl3): 2 min
Half-life of Leu3 amide proton (HDX) ([5]; 20% CD3OD in CDCl3): > 24 h
Half-life of Leu6 amide proton (HDX) ([5]; 20% CD3OD in CDCl3): > 24 h
Half-life of Tyr5 amide proton (HDX) ([5]; 20% CD3OD in CDCl3): 1.75 h
% intact NH, Leu3 [5, 14]: 72%
% intact NH, Leu6 [5, 14]: 90%
tR [6]: 9.3 min
Half lives (SGF) set1 (pepsin [7]): 10 min
%F [8]: 0%
time over which the peptide is detectable in plasma ([8]; po, 10 mg/kg): ≤ 1 h
Half lives (human liver microsomes): 6.7
Intrinsic clearance (CLint) Avg (human liver microsomes; human): 225 µL/min/mg
half-life (in vitro [9]): 8 h
remaining at 1 h (in vitro [9]): 86%
remaining at 3 h (in vitro [9]): 80%
remaining at 5 h (in vitro [9]): 67%
remaining at 7 h (in vitro [9]): 59%
remaining at 9 h (in vitro [9]): 43%
remaining at 12 h (in vitro [9]): 37%
remaining at 24 h (in vitro [9]): 24%
remaining at 36 h (in vitro [9]): 19%
remaining at 48 h (in vitro [9]): 13%
remaining at 60 h (in vitro [9]): 4%
remaining at 72 h (in vitro [9]): 4%
fraction unbound (in vitro [10]): 0.51
AUC(0-t) (in vivo; iv): 548 ng·h/mL
Cmax (in vivo; iv): 1050 ng/mL
MRT (in vivo; iv): 1.6 h
Vd (in vivo; iv): 4.1 L/kg
clearance (in vivo; iv): 28.4 mL/min/kg
AUC(0-t) (in vivo; po, 10 mg/kg): 0.9 ng·h/mL
Cmax (in vivo; po, 10 mg/kg): 3.5 ng/mL
MRT (in vivo; po, 10 mg/kg): 0.2 h
half-life (pepsin [11]): 0.2 h
remaining at 5 min (pepsin [11]): 67%
remaining at 10 min (pepsin [11]): 54%
remaining at 20 min (pepsin [11]): 40%
remaining at 0.5 h (pepsin [11]): 34%
remaining at 1 h (pepsin [11]): 22%
remaining at 2 h (pepsin [11]): 16%
remaining at 4 h (pepsin [11]): 10%
remaining at 8 h (pepsin [11]): 6%
remaining at 12 h (pepsin [11]): 2%
remaining at 24 h (pepsin [11]): 0%
t1/2 in human blood plasma: 8 h
% solubility [12]: 97%
logD heptane ethylene glycol [13]: 0.46
Compound: CC(C)C[C@@H]1NC(=O)[C@H](Cc2ccc(O)cc2)NC(=O)[C@H]2CCCN2C(=O)[C@H](CC(C)C)NC(=O)[C@H](CC(C)C)NC(=O)[C@@H](CC(C)C)NC1=O [compound 10, cyclo(-D-Leu^1-Leu-Leu-D-Pro-Tyr-Leu^6-)] (cyclo(LL[dP]YL[dL]))

Source: article PMC10539501 (Nature Communications, 2023)
